Literature values as cited in patent US5643912A, “Pyrazinoic acid esters as anti-mycobacterium avium agents” (The Research Foundation of State University of NY, priority 1996, dated 1997).

System: Mycobacterium (M.) tuberculosis
Details: cited from earlier work

NC(=O)c1cnccn1 [pyrazinamide]
resistance development: resistance develops quickly
